pKi: −log10 of the molar value.
Biological target: LTB4 receptor (Homo sapiens, UniProt Q15722)
Assay: receptor binding test
From the text: The activity can be investigated pharmacologically and biochemically using tests as disclosed for example in WO 93/16036, pp. 15 to 17; reference is hereby made to the contents of this publication.

LTB4 receptor, sequence (Q15722 whole entry): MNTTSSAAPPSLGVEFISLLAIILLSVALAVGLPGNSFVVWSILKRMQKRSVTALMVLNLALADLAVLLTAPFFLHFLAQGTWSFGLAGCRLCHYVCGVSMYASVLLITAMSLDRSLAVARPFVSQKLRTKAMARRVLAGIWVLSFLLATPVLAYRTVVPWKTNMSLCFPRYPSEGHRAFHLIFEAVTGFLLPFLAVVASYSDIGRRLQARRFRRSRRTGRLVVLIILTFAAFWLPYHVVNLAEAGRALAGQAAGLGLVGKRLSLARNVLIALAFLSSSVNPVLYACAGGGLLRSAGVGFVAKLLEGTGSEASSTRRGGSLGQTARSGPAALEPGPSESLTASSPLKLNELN

pKi: 8.44
Structure (SMILES): CCCc1cc(-c2ccc(C(=N)N)cc2)ccc1OCCOc1cccc(O[C@@H]2O[C@H](C(=O)O)[C@@H](O)[C@H](O)[C@H]2O)c1 [Example 1, 3′-n-propyl-4′-[2-(3-hydroxyphenoxy)-ethoxy]-1,1′-biphenyl-4-carboximidamide-O-β-D-glucuronide]
